# Source: patent US20080146556A1, “Method of radio-sensitizing tumors using a radio-sensitizing agent” (Cephalon, Inc., priority 2006, published 2008)
# Where two headings read alike, the source gives them in different places.
# Tests used:
# recombinant human PARP = recombinant human PARP (Homo sapiens, UniProt P09874); test: Measurement of PARP enzymatic activity ([32P]NAD+ transfer to protein acceptor); type: biochemical; details: 100 μM NAD+
# Experimental: PARP activity was monitored by transfer of radiolabeled ADP-ribose units from [^32P]NAD^+ to a protein acceptor such as histone or PARP itself. The assay mixtures contained 100 mM Tris (pH 8.0), 2 mM DTT, 10 mM MgCl2, 20 ug/ml DNA (nicked by sonication), […] histone H1, 5 ng recombinant human PARP, and inhibitor or DMSO (<2.5% (v/v)) in a final volume of 100 uL. The reactions were initiated by the addition of 100 μM NAD^+ supplemented with 2 uCi [^32P]NAD^+/mL and maintained at room temperature for 12 minutes. Assays were terminated by the addition of […] and the radiolabeled precipitate was collected on a 96-well filter plate (Millipore, MADP NOB 50), washed with 25% TCA. The amount of acid-insoluble radioactivity, corresponding to polyADP-ribosylated protein, was quantitated in a Wallac MicroBeta scintillation counter.
# Single-point inhibition data were calculated by comparing PARP, VEGFR2, or MLK3 activity in the presence of inhibitor to activity in the presence of DMSO only. Inhibition curves for compounds were generated by plotting percent inhibition versus log10 of the concentration of compound. IC50 values were calculated by nonlinear regression using the sigmoidal dose-response (variable slope) equation in GraphPad Prism as follows:
# y=bottom+(top−bottom)/(1+10^(log IC^50^−x)*Hillslope)
# where y is the % activity at a given concentration of compound, x is the logarithm of the concentration of compound, bottom is the % inhibition at the lowest compound concentration tested, and top is the % inhibition at the highest compound concentration examined. The values for bottom and top were fixed at 0 and 100, respectively. IC50 values are reported as the average of at least three separate determinations.
# Where no IC50 value is represented, data has yet to be determined.
# [1] = Plasma levels of Example 6 at Cmax after s.c. dosing of Example 7 in the radio-sensitization studies; type: in vivo, nude mice; details: athymic NCR NUM nude, mouse, sc
# [2] = tested on: U87MG human glioblastoma xenografts; test: Initial radio-sensitizing study, non-optimized dosing schedule (7.5 Gy x 3 days, s.c.); type: in vivo, nude mice
# [3] = tested on: U87MG human glioblastoma xenografts; type: in vivo
# [4] = tested on: bone marrow and intestinal mucosa; test: Bone marrow and jejunal crypt assays for radiation-induced normal tissue toxicity; type: in vivo; details: Example 7 30 and 100 mg/kg dose equivalents of Example 6 sc plus 2 Gy radiation x 5 days
# Experimental: To evaluate therapeutic gain, Example 7 (30 and 100 mg/kg dose equivalents of Example 6 sc) plus 2 Gy radiation×5 days was evaluated in bone marrow and jejunal crypt assays to determine if Example 7 potentiated radiation-induced normal tissue (NT) toxicity.
# [5] = tested on: U87MG human glioblastoma xenografts; test: Preliminary radio-sensitizing study of orally administered Example 7; type: in vivo, nude mice
# [6] = Example 7 30 mg/kg s.c. qd x 21 d plus RT 2 Gy x 5 days
# Sequence of recombinant human PARP (P09874 whole entry): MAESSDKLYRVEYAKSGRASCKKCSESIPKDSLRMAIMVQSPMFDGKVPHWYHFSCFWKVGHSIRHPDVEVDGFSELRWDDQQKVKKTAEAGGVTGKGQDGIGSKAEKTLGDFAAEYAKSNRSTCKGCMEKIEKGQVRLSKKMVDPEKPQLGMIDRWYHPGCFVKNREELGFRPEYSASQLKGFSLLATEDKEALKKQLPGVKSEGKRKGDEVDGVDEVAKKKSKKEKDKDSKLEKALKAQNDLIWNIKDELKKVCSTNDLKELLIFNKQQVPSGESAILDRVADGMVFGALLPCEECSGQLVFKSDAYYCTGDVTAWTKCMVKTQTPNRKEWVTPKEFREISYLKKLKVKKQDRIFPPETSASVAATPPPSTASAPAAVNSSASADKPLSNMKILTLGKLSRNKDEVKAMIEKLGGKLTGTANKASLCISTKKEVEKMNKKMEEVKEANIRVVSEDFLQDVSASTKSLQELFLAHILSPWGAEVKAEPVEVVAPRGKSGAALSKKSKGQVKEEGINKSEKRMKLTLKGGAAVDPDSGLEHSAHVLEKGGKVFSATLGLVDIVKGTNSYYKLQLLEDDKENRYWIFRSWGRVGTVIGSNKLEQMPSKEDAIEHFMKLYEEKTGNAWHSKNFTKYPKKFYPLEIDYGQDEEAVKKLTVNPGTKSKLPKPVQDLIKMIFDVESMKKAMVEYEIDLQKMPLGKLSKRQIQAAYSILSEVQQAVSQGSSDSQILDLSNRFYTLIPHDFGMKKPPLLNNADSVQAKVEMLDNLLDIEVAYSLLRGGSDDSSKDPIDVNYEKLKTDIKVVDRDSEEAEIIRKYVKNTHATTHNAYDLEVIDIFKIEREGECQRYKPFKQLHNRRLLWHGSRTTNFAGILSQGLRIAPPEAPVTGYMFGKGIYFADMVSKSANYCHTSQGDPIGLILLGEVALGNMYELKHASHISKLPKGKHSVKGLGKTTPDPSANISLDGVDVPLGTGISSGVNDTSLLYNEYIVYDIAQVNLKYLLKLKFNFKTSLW
smiles,measurement,setting,value
"COc1cccc2[nH]c3c4c(c5c(c3c12)C(=O)NC5=O)CCC4 [Example 6, 7-Methoxy-1,2,3,11-tetrahydro-5,11-diaza-benzo[a]trindene-4,6-dione]",IC50,recombinant human PARP,< 100 nM
same,Cmax,"[1]; 30 mg/kg, Example 7 30 mg/kg s.c., fractionated RT study, read-out: Plasma levels of Example 6 at Cmax associated with radio-sensitization efficacy",5.5 µM
same,Cmax,"[1]; 100 mg/kg, Example 7 100 mg/kg s.c. dose, fractionated RT study, read-out: Plasma levels at Cmax",21 µM
same,Cmax,"[1]; 100 mg/kg, at 100 mg/kg Example 7 s.c., initial study (7.5 Gy schedule), read-out: Plasma levels of Example 6 at Cmax associated with efficacy",23 µM
"COc1cccc2[nH]c3c4c(c5c(c3c12)C(=O)N(CN1CCN(C)CC1)C5=O)CCC4 [Example 7, 7-Methoxy-5-(4-methyl-piperazin-1-ylmethyl)-1,2,3,11-tetrahydro-5,11-diaza-benzo[a]trindene-4,6-dione]",tumor growth delay (TGD),"[2]; Example 7 (100 mg/kg s.c. qd) with 7.5 Gy radiation for 3 days, vs vehicle",14.8 days
same,time for tumors to reach 2000 mm3,"[2]; Example 7 (100 mg/kg s.c. qd) with 7.5 Gy radiation for 3 days, radiation alone 16.1 days",24.8 days
same,effect on tumor growth as a single agent,"[2]; Example 7 alone, 100 mg/kg dose equivalents of Example 6, s.c., QD for 5 days",no effect on tumor growth
same,time for tumors to reach a tumor volume of 2000 mm3,"[2]; Example 7 only, 100 mg/kg dose equivalents of Example 6, s.c., QD 5 days, vehicle 10.0 days",9.6 days
same,IC50,recombinant human PARP,< 100 nM
same,TGD compared to radiation alone,[3]; Example 7 30 mg/kg s.c. qd x 21 d in combination with RT 2 Gy x 5 days,15 days
same,TGD compared to Example 7 alone,[3]; [6],26 days
same,fold increase in TGD compared to Example 7 alone,[3]; [6],6 fold
same,fold increase in TGD compared to radiation alone,[3]; [6],4 fold
same,anti-tumor efficacy,[3]; Example 7 100 mg/kg s.c. with fractionated radiotherapy 2 Gy x 5 days,significant anti-tumor efficacy
same,mortality,"[3]; Example 7 100 mg/kg s.c. with fractionated radiotherapy, by day 11",80%
same,"effect on tumor growth inhibition, Example 7 alone","[3]; Example 7 alone, 30 mg/kg dose equivalents of Example 6 s.c. qd x 21 days",no effect on tumor growth inhibition
same,potentiation of radiation-induced normal tissue toxicity,[4],did not potentiate radiation toxicity
same,effect on tumor growth,[5]; Example 7 200 mg/kg dose equivalents of Example 6 p.o. qd x 21 d plus RT 2 Gy x 5 d,no effect on tumor growth as compared to RT alone
same,effect on tumor growth,[5]; Example 7 300 mg/kg dose equivalents of Example 6 p.o. qd x 21 d plus RT 2 Gy x 5 d,tumor growth stasis starting on day 8 and continuing throughout the study (day 31)
same,effect on tumor growth,"[5]; Example 7 alone, 200 and 300 mg/kg dose equivalents of Example 6 p.o. qd x 21 d",no effect on tumor growth as compared to RT alone
same,radio-sensitizing effect when administered orally,[5]; oral administration,exerts radio-sensitizing effects when administered orally
"COc1cccc2c1c1c3c(c4c(c1n2CN1CCOCC1)CCC4)C(=O)N(CN1CCOCC1)C3=O [Example 9, 7-Methoxy-5,11-(bis-morpholin-4-ylmethyl)-1,2,3,11-tetrahydro-5,11-diaza-benzo[a]trindene-4,6-dione]",IC50,recombinant human PARP,< 100 nM
"COc1cccc2[nH]c3c4c(c5c(c3c12)C(=O)N(CN1CCOCC1)C5=O)CCC4 [Example 10, 7-Methoxy-5-(morpholin-4-ylmethyl)-1,2,3,11-tetrahydro-5,11-diaza-benzo[a]trindene-4,6-dione]",IC50,recombinant human PARP,< 100 nM
